In US20200268768A1, “CENICRIVIROC COMBINATION THERAPY FOR THE TREATMENT OF FIBROSIS” (Tobira Therapeutics, Inc., priority 2015, published 2020):
Values joined by “and” are separate entries in the source; they are usually repeats but may differ in a detail not shown here. Identical values can stand only once.

How the values were obtained:
[1] = Chronic (3- and 9-month) monkey toxicity studies; type: in vivo
Mouse toxicity studies = type: in vivo; details: CVC doses up to 2000 mg/kg/day; no surgical procedures
CCR5 = CCR5 (Homo sapiens, UniProt P51681); test: CCR5 antagonism in in vitro, ex vivo and clinical studies; details: Studies 652-2-201 and 652-2-202
Sequence of CCR5 (P51681 whole entry): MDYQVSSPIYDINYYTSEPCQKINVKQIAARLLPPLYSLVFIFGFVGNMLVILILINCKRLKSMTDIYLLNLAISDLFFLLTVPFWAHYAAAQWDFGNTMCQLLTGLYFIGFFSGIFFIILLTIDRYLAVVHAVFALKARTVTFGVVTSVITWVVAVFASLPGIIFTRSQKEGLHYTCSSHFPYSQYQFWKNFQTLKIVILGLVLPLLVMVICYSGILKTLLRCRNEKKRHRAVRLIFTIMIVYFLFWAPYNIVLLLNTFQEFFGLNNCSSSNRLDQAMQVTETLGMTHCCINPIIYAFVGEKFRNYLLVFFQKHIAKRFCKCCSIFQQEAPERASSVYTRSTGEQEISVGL
Description: (§1) Clinical evidence of CCR2 and CCR5 antagonism was established by measuring changes from baseline in plasma MCP-1 (a ligand of CCR2) concentrations and changes in plasma HIV-RNA (CCR5 co-receptor required for HIV entry), respectively, in these 2 Phase 2 Studies.

[2] = system: STAM mouse model of Non-alcoholic Steatohepatitis; test: STAM mouse model of NASH, anti-NASH/fibrosis effects at week 9; type: in vivo, mice; parameters: key to Hepatocyte ballooning score 0, number of mice / Hepatocyte ballooning score 1, number of mice: 0: None; 1: Few balloon cells; 2: Many cells/prominent ballooning; TNF-a mRNA expression level / MCP-1 mRNA expression level / Collagen Type 1 mRNA expression level / TIMP-1 mRNA expression level: scale not given here; details: for Collagen Type 1 mRNA expression level / MCP-1 mRNA expression level / TIMP-1 mRNA expression level / TNF-a mRNA expression level: liver, quantitative RT-PCR; for Collagen Type 1 mRNA expression level / MCP-1 mRNA expression level / TIMP-1 mRNA expression level / TNF-a mRNA expression level / Body weight / F4/80-positive area (inflammation area) / F4/80 and CD206-positive cells / F4/80 and CDE 16/32-positive cells / Liver hydroxyproline / Liver triglyceride / Liver weight / Liver-to-body weight ratio / M1/M2 ratio / NAFLD Activity Score (NAS) / Oil red-positive area (fat deposition area) / Plasma ALT / Plasma MCP-1 / TUNEL-positive cells / Whole blood glucose / Sirius red-positive area (fibrosis area) / Modified Sirius red-positive rea: mean ± SD; for Sirius red-positive area (fibrosis area): perivascular space included; for Modified Sirius red-positive rea: perivascular space subtracted
Procedure: NASH was induced in male mice by a single injection of 200 μg streptozotocin 2 days after birth (causing impaired glucose control), followed by a high fat diet from 4 weeks of age. […] Animals were sacrificed at 9 weeks of age, and biochemical, gene expression, and histologic evaluations of the liver were conducted. This in vivo efficacy study was performed to examine the effects of Cenicriviroc in the STAM™ mouse model of Non-alcoholic Steatohepatitis. […] [table]

CCR2 = CCR2 (Homo sapiens, UniProt P41597); test: CCR2 antagonism in in vitro, ex vivo and clinical studies; details: Studies 652-2-201 and 652-2-202
Sequence of CCR2 (P41597 whole entry): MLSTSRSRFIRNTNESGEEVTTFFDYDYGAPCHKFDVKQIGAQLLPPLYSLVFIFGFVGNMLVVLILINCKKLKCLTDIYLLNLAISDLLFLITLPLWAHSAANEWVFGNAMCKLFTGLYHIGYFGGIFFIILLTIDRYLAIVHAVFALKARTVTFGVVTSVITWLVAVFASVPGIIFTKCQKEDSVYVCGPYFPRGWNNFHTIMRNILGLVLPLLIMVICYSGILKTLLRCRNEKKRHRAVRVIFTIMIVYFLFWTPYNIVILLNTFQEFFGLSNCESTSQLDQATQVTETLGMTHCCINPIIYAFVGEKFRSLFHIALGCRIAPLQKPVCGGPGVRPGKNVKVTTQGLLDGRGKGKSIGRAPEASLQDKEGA
Description: as §1

[3] = CVC-high 100 mg/kg/day oral, listed as Cenicriviroc
[4] = CVC-low 20 mg/kg/day oral, listed as Cenicriviroc

With `CCCCOCCOc1ccc(-c2ccc3c(c2)C=C(C(=O)Nc2ccc([S@@+]([O-])Cc4cncn4CCC)cc2)CCCN3CC(C)C)cc1` [CVC, (S)-8-[4-(2-Butoxyethoxy)phenyl]-1-isobutyl-N-(4-{[(1-propyl-1H-imidazol-5-yl)methyl]sulfinyl}phenyl)-1,2,3,4-tetrahydro-1-benzazocine-5-carboxamide] the “Plasma MCP-1 levels over controls” value ([1]; 1000 mg/kg/day, chronic (3- and 9-month) monkey toxicity studies) was ~5 fold, the “Inflammation in clinical pathology parameters or any tissue, including the liver, by microscopic evaluation” value ([1]; high dose of 1000 mg/kg/day) was “No indication of inflammation” and the Tolerability (Mouse toxicity studies) was “well tolerated”. The “Antagonism of CCR5” value (CCR5) was “potent and concentration-dependent antagonism”, the “Decrease of collagen type 1 mRNA in whole liver lysates” value ([2]; CVC 20 and 100 mg/kg/day, real-time RT-PCR) was 27-37% and the “Collagen Type 1 mRNA expression level” value ([2]; CVC-high 100 mg/kg/day oral) was 0.73±0.04. For the same compound, the “MCP-1 mRNA expression level” value ([2]; CVC-high 100 mg/kg/day oral) was 1.00±0.53, the “TIMP-1 mRNA expression level” value ([2]; CVC-high 100 mg/kg/day oral) was 0.80±0.20 and the “TNF-a mRNA expression level” value ([2]; CVC-high 100 mg/kg/day oral) was 1.09±0.23. The “Collagen Type 1 mRNA expression level” value [2, 3] was 0.73 ± 0.04, the “MCP-1 mRNA expression level” value [2, 3] was 1.00 ± 0.53 and the “TIMP-1 mRNA expression level” value [2, 3] was 0.80 ± 0.20. For the same compound, the “TNF-a mRNA expression level” value [2, 3] was 1.09 ± 0.23, the Body weight ([2]; CVC-high 100 mg/kg/day oral) was 18.7 ± 0.9 g and the “F4/80-positive area (inflammation area)” value ([2]; CVC-high 100 mg/kg/day oral) was 4.96±0.60%. The “F4/80 and CD206-positive cells” value ([2]; CVC-high 100 mg/kg/day oral) was 33.1±3.0%, the “F4/80 and CDE 16/32-positive cells” value ([2]; CVC-high 100 mg/kg/day oral) was 41.5±8.2% and the Liver hydroxyproline ([2]; CVC-high 100 mg/kg/day oral) was 0.62±0.09 ug/mg total protein. It also gave a Liver triglyceride ([2]; CVC-high 100 mg/kg/day oral) of 51.7±14.1 mg/g liver, a Liver weight ([2]; CVC-high 100 mg/kg/day oral) of 1307 ± 119 mg and a Liver-to-body weight ratio ([2]; CVC-high 100 mg/kg/day oral) of 7.0±0.8%. For the same compound, the M1/M2 ratio ([2]; CVC-high 100 mg/kg/day oral) was 125.1±21.9%, the “NAFLD Activity Score (NAS)” value ([2]; CVC-high 100 mg/kg/day oral) was 3.7±0.8 and the “Oil red-positive area (fat deposition area)” value (shortened to “Oil red-positive area”) ([2]; CVC-high 100 mg/kg/day oral) was 7.23±3.59%. The “Plasma ALT” value ([2]; CVC-high 100 mg/kg/day oral) was 51±13 U/L and 52±13 U/L, the “Plasma MCP-1” value ([2]; CVC-high 100 mg/kg/day oral) was 91 ± 14 pg/mL and the TUNEL-positive cells ([2]; CVC-high 100 mg/kg/day oral) was 39.0±5.3%. The Whole blood glucose ([2]; CVC-high 100 mg/kg/day oral) was 585 ± 91 mg/dL, the Body weight [2, 3] was 18.7 ± 0.9 g and the “F4/80-positive area (inflammation area)” value [2, 3] was 4.96 ± 0.60%. For the same compound, the “F4/80 and CD206-positive cells” value [2, 3] was 33.1 ± 3.0%, the “F4/80 and CDE 16/32-positive cells” value [2, 3] was 41.5 ± 8.2% and the Liver hydroxyproline [2, 3] was 0.62 ± 0.09 ug/mg total protein. It also gave a Liver triglyceride [2, 3] of 51.7 ± 14.1 mg/g liver, a Liver weight [2, 3] of 1307 ± 119 mg and a Liver-to-body weight ratio [2, 3] of 7.0 ± 0.8%. For the same compound, the M1/M2 ratio [2, 3] was 125.1 ± 21.9%, the “NAFLD Activity Score (NAS)” value [2, 3] was 3.7 ± 0.8 and the “Oil red-positive area” value [2, 3] was 7.23 ± 3.59%. For the same compound, the “Plasma ALT” value [2, 3] was 52 ± 13 U/L, the “Plasma MCP-1” value [2, 3] was 91 ± 14 pg/mL and the TUNEL-positive cells [2, 3] was 39.0 ± 5.3%. The Whole blood glucose [2, 3] was 585 ± 91 mg/dL, the “Sirius red-positive area (fibrosis area)” value [2, 3] was 0.64 ± 0.19% and the “Modified Sirius red-positive rea” value [2, 3] was 0.20 ± 0.06%. The “Modified positive area, per mouse” value ([2]; CVC-high 100 mg/kg/day, Sirius red, individual mice 301-306, listed as Cenicriviroc) was 0.18% and 0.20% and 0.12% and 0.26% and 0.17% and 0.27%, the “Modified positive area, per photo” value ([2]; CVC-high 100 mg/kg/day, Sirius red, individual mice 301-306, photos 1-5, listed as Cenicriviroc) was 0.26% and 0.06% and 0.10% and 0.41% and 0.09% (2×) and 0.23% (2×) and 0.17% (2×) and 0.28% (2×) and 0.22% (2×) and 0.08% (3×) and 0.05% and 0.32% and 0.07% (3×) and 0.16% and 0.20% (2×) and 0.68% and 0.27% and 0.12% and 0.11% and 0.67% and the “Hepatocyte ballooning score 0, number of mice” value ([2]; CVC-high 100 mg/kg/day, n=6) was 1. The “Hepatocyte ballooning score 1, number of mice” value ([2]; CVC-high 100 mg/kg/day, n=6) was 2, the “Hepatocyte ballooning score 2, number of mice” value ([2]; CVC-high 100 mg/kg/day, n=6) was 3 and the “Lobular inflammation score 1, number of mice” value ([2]; CVC-high 100 mg/kg/day, n=6) was 3 (>4 foci/200x). The “Lobular inflammation score 2, number of mice” value ([2]; CVC-high 100 mg/kg/day, n=6) was 3 (>4 foci/200x), the “Steatosis score 0, number of mice” value ([2]; CVC-high 100 mg/kg/day, n=6) was 1 (5-33%) and the “Steatosis score 1, number of mice” value ([2]; CVC-high 100 mg/kg/day, n=6) was 5. The “Collagen Type 1 mRNA expression level” value ([2]; CVC-low 20 mg/kg/day oral) was 0.63±0.10, the “MCP-1 mRNA expression level” value ([2]; CVC-low 20 mg/kg/day oral) was 1.05±0.50 and the “TIMP-1 mRNA expression level” value ([2]; CVC-low 20 mg/kg/day oral) was 0.75±0.32. For the same compound, the “TNF-a mRNA expression level” value ([2]; CVC-low 20 mg/kg/day oral) was 1.16±0.39, the “Collagen Type 1 mRNA expression level” value [2, 4] was 0.63 ± 0.10 and the “MCP-1 mRNA expression level” value [2, 4] was 1.05 ± 0.50. For the same compound, the “TIMP-1 mRNA expression level” value [2, 4] was 0.75 ± 0.32, the “TNF-a mRNA expression level” value [2, 4] was 1.16 ± 0.39 and the Body weight ([2]; CVC-low 20 mg/kg/day oral) was 19.5 ± 2.0 g. The “F4/80-positive area (inflammation area)” value ([2]; CVC-low 20 mg/kg/day oral) was 4.77±1.02%, the “F4/80 and CD206-positive cells” value ([2]; CVC-low 20 mg/kg/day oral) was 34.7±6.3% and the “F4/80 and CDE 16/32-positive cells” value ([2]; CVC-low 20 mg/kg/day oral) was 38.7±7.6%. The Liver hydroxyproline ([2]; CVC-low 20 mg/kg/day oral) was 0.63±0.05 ug/mg total protein, the Liver triglyceride ([2]; CVC-low 20 mg/kg/day oral) was 48.5±16.1 mg/g liver and the Liver weight ([2]; CVC-low 20 mg/kg/day oral) was 1334 ± 99 mg. For the same compound, the Liver-to-body weight ratio ([2]; CVC-low 20 mg/kg/day oral) was 6.9±1.0%, the M1/M2 ratio ([2]; CVC-low 20 mg/kg/day oral) was 112.3±17.0% and the “NAFLD Activity Score (NAS)” value ([2]; CVC-low 20 mg/kg/day oral) was 4.0±0.6. For the same compound, the “Oil red-positive area” value ([2]; CVC-low 20 mg/kg/day oral) was 6.51±3.88%, the “Plasma ALT” value ([2]; CVC-low 20 mg/kg/day oral) was 58±12 U/L and the “Plasma MCP-1” value ([2]; CVC-low 20 mg/kg/day oral) was 68 ± 16 pg/mL. It also gave a TUNEL-positive cells ([2]; CVC-low 20 mg/kg/day oral) of 43.3±2.9%, a Whole blood glucose ([2]; CVC-low 20 mg/kg/day oral) of 585 ± 91 mg/dL and a Body weight [2, 4] of 19.5 ± 2.0 g. For the same compound, the “F4/80-positive area (inflammation area)” value [2, 4] was 4.77 ± 1.02%, the “F4/80 and CD206-positive cells” value [2, 4] was 34.7 ± 6.3% and the “F4/80 and CDE 16/32-positive cells” value [2, 4] was 38.7 ± 7.6%. For the same compound, the Liver hydroxyproline [2, 4] was 0.63 ± 0.05 ug/mg total protein, the Liver triglyceride [2, 4] was 48.5 ± 16.1 mg/g liver and the Liver weight [2, 4] was 1334 ± 99 mg. The Liver-to-body weight ratio [2, 4] was 6.9 ± 1.0%, the M1/M2 ratio [2, 4] was 112.3 ± 17.0% and the “NAFLD Activity Score (NAS)” value [2, 4] was 4.0 ± 0.6. The “Oil red-positive area” value [2, 4] was 6.51 ± 3.88%, the “Plasma ALT” value [2, 4] was 58 ± 12 U/L and the “Plasma MCP-1” value [2, 4] was 68 ± 16 pg/mL. For the same compound, the TUNEL-positive cells [2, 4] was 43.3 ± 2.9%, the Whole blood glucose [2, 4] was 585 ± 91 mg/dL and the “Sirius red-positive area (fibrosis area)” value [2, 4] was 0.66 ± 0.16%. The “Modified Sirius red-positive rea” value [2, 4] was 0.29 ± 0.14%, the “Hepatocyte ballooning score 1, number of mice” value ([2]; CVC-low 20 mg/kg/day, n=6) was 3 and the “Hepatocyte ballooning score 2, number of mice” value ([2]; CVC-low 20 mg/kg/day, n=6) was 3. For the same compound, the “Lobular inflammation score 1, number of mice” value ([2]; CVC-low 20 mg/kg/day, n=6) was 3 (>4 foci/200x), the “Lobular inflammation score 2, number of mice” value ([2]; CVC-low 20 mg/kg/day, n=6) was 3 (>4 foci/200x) and the “Steatosis score 1, number of mice” value ([2]; CVC-low 20 mg/kg/day, n=6) was 6. For the same compound, the “Increase in plasma monocyte chemotactic protein-1 levels” value ([2]; high dose 100 mg/kg/day) was 1.5 fold, the “Increase in plasma monocyte chemotactic protein-1 levels” value ([2]; low dose 20 mg/kg/day) was 1.1 fold and the “Antagonism of CCR2” value (CCR2) was “potent and concentration-dependent antagonism”.
